Test [1] deals with Glycogen synthase kinase-3 alpha (Homo sapiens, UniProt P49840). Description: TR-FRET Assay. In short, it runs like this:
(§1)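 TR-FRET readout: streptavidin-d2 (40 nM in added detection mix) plus Tb-anti-pSer641 Ab (2 nM in mix). Steps were 30 min compound preincubation, kinase reaction, then EDTA stop.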

Test [2] deals with Glycogen synthase kinase-3 beta (Homo sapiens, UniProt P49841). Description: TR-FRET Assay. In a few lines: as §1

SMILES strings stand for the structures. “And” between values parts separate entries of the source, which are not always exact repeats. Equal entries are not always repeated.

Glycogen synthase kinase-3 beta, sequence (P49841 whole entry): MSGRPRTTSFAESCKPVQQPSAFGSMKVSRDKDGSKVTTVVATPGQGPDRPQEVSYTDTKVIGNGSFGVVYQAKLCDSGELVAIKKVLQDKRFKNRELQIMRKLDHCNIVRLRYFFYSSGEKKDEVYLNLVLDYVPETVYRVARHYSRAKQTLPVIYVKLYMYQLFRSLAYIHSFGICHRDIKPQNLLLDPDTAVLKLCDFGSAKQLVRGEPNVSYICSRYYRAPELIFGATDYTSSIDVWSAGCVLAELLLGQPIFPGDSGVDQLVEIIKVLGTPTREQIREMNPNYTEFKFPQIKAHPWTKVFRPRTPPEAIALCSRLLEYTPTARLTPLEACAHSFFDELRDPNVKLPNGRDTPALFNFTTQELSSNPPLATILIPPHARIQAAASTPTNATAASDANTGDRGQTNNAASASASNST
Glycogen synthase kinase-3 alpha, sequence (P49840 whole entry): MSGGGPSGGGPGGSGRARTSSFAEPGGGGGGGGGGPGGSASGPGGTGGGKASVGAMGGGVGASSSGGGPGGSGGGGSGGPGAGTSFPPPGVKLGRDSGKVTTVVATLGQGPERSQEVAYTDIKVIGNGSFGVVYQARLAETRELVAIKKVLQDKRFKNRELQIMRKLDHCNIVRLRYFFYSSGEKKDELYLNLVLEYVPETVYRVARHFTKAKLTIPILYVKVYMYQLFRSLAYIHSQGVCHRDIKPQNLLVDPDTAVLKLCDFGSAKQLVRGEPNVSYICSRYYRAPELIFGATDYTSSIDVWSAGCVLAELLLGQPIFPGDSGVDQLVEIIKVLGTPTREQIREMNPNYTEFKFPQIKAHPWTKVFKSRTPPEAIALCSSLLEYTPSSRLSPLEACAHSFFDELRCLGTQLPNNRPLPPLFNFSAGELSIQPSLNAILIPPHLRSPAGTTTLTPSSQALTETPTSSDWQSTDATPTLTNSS

Turning to `CCC1(c2cccc(Cc3ncccn3)c2)C2=CN=NC2NC2=C1C(=O)NC(C)(C)C2` (stereo not given) [US20250313563, Compound 950151], the IC50 was below 0.1 µM in test [1] and 1 to 5 µM in test [2].

With `CC[C@@]1(c2ccccc2)C2=CN=NC2NC2=C1C(=O)C[C@]1(CCNC1=O)C2` (stereo not given in full) [US20250313563, Compound 950160], the 50% inhibitory concentration (IC50) in test [1] was 1 to 5 µM; in test [2], above 5 µM.

With `CC[C@]1(c2ccccc2)C2=CN=NC2NC2=C1C(=O)C[C@]1(CCNC1=O)C2` (stereo not given in full) [US20250313563, Compound 950161], the half-inhibitory concentration (IC50) in test [1] is 1 to 5 µM; in test [2] it was above 5 µM.

Regarding `CC[C@]1(c2cccc(-c3ccnc(C)c3)c2)C2=C(CC(C)(C)NC2=O)NC2N=NC(C(F)F)=C21` (stereo not given in full) [US20250313563, Compound 950162], the half-maximal inhibitory concentration (IC50) in test [1] and in test [2] was 0.1 to 1 µM each time.

Regarding `CC[C@]1(c2cccc(-c3cn(C)nc3C)c2)C2=CN=NC2NC2=C1C(=O)NC1(CCCC1)C2` (stereo not given in full) [US20250313563, Compound 950252], the 50% inhibitory concentration (IC50) in test [1] was below 0.1 µM; in test [2], < 0.1 µM and 1 to 5 µM.

For the compound `CC[C@@]1(c2cccc(-c3cnn(C(F)F)c3)c2)C2=CN=NC2NC2=C1C(=O)NC(C)(C)C2` (stereo not given in full) [US20250313563, Compound 950254], the IC50 in test [1] was below 0.1 µM; in test [2], 1 to 5 µM.

Take `CC[C@@]1(c2cccc(C3=C(C)SN(C)C3)c2)C2=CN=NC2NC2=C1C(=O)NC1(CCCC1)C2` (stereo not given in full) [US20250313563, Compound 950255]: the concentration for half-maximal inhibition (IC50) was 0.1 to 1 µM in test [1] and above 5 µM in test [2].

`CC[C@]1(c2cccc(C(F)(F)F)c2)C2=C(N=NC2)NC2=C1C(=O)C(C)(C)C2` [US20250313563, Compound 950272]: the IC50 in test [1] was below 0.1 µM; in test [2], 0.1 to 1 µM.

Regarding `CC[C@]1(c2cccc(-c3ccnc(C)c3)c2)C2=C(N=NC2)NC2=C1C(=O)C(C)(C)C2` [US20250313563, Compound 950282], the results for the half-maximal inhibitory concentration (IC50) in test [1] and in test [2] were below 0.1 µM and 0.1 to 1 µM, respectively.

Regarding `CC[C@@]1(c2cccc(-c3ccnc(C)c3)c2)C2=C(N=NC2)NC2=C1C(=O)C(C)(C)C2` [US20250313563, Compound 950283], the IC50 is 1 to 5 µM in test [1] and above 5 µM in test [2].

As for `CCC1(c2cccc(Oc3ncccn3)c2)C2=C(CC(C)(C)NC2=O)NC2N=NC(Cl)=C21` (stereo not given) [US20250313563, Compound 950318], the IC50 in test [1] and in test [2] was below 0.1 µM throughout.

As for `CCC1(c2cccc(-c3ccncc3F)c2)C2=C(CC(C)(C)NC2=O)NC2N=NC(C(F)F)=C21` (stereo not given) [US20250313563, Compound 950320], the half-maximal inhibitory concentration (IC50) in test [1] and in test [2] was below 0.1 µM throughout.

For the compound `CCC1(c2cccc(Oc3ncccn3)c2)C2=C(CC(C)(C)NC2=O)NC2N=NC(C(F)(F)F)=C21` (stereo not given) [US20250313563, Compound 950323], the half-inhibitory concentration (IC50) in test [1] and in test [2] was below 0.1 µM each time.

`CC[C@@]1(c2cccc(C(F)(F)F)c2)C2=CN=NC2NC2=C1C(=O)C[C@]1(CCN(C)C1=O)C2` (stereo not given in full) [US20250313563, Compound 950325]: the 50% inhibitory concentration (IC50) in test [1] and in test [2] was above 5 µM in each case.

On to `CC[C@@]1(c2cccc(C(F)(F)F)c2)C2=CN=NC2NC2=C1C(=O)C[C@@]1(CCN(C)C1=O)C2` (stereo not given in full) [US20250313563, Compound 950326], for which the concentration for half-maximal inhibition (IC50) in test [1] was below 0.1 µM; in test [2], 0.1 to 1 µM.

`CC[C@]1(c2cccc(C(F)(F)F)c2)C2=CN=NC2NC2=C1C(=O)C[C@@]1(CCNC1=O)C2` (stereo not given in full) [US20250313563, Compound 950332]: the concentration for half-maximal inhibition (IC50) in test [1] and in test [2] was above 5 µM each time.

As to `CC[C@]1(c2cccc(C(F)(F)F)c2)C2=CN=NC2NC2=C1C(=O)C[C@]1(CCNC1=O)C2` (stereo not given in full) [US20250313563, Compound 950333], the figures for the IC50 in test [1] and in test [2] were below 0.1 µM and 0.1 to 1 µM, respectively.

With `Cc1nccc([C@H]2CC[C@@]3(CC2)C2=C(N=NC2)NC2=C3C(=O)CC(C)(C)C2)c1C` [US20250313563, Compound 950477], the half-maximal inhibitory concentration (IC50) in test [1] and in test [2] was 0.1 to 1 µM throughout.

For `Cc1nccc([C@H]2CC[C@]3(CC2)C2=C(N=NC2)NC2=C3C(=O)CC(C)(C)C2)c1C` [US20250313563, Compound 950478], the IC50 in test [1] and in test [2] was below 0.1 µM throughout.

For the compound `CCC1(c2cccc(C(F)(F)F)c2)C2=CN=NC2NC2=C1C(=O)N(C1=CN=NC1)CC2` (stereo not given) [US20250313563, Compound 950479], the IC50 in test [1] is below 0.1 µM; in test [2] it was 0.1 to 1 µM.

Take `CCC1(c2cccc(N(C)c3ncccn3)c2)C2=C(CC(C)(C)NC2=O)NC2N=NC(C(F)F)=C21` (stereo not given) [US20250313563, Compound 950484]: the IC50 in test [1] and in test [2] was below 0.1 µM in each case.

In the case of `CCC1(c2cccc(C(F)(F)F)c2)C2=CN=NC2NC2=C1C(=O)N(c1nn(C)cc1C)CC2` (stereo not given) [US20250313563, Compound 950486], the concentration for half-maximal inhibition (IC50) was 0.1 to 1 µM in test [1] and 1 to 5 µM in test [2].

`CC[C@]1(c2cccc(-c3cn(C)nc3C)c2)C2=C(CC(C)(C)NC2=O)NC2N=NC(C(F)F)=C21` (stereo not given in full) [US20250313563, Compound 950490]: the IC50 in test [1] and in test [2] was 0.1 to 1 µM throughout.

As to `CC[C@]1(c2cccc(C(C)C)c2)C2=C(CC(C)(C)NC2=O)NC2N=NC(C(F)(F)F)=C21` (stereo not given in full) [US20250313563, Compound 950493], the IC50 in test [1] and in test [2] was 0.1 to 1 µM in each case.

With `CC[C@@]1(c2cccc(C(C)C)c2)C2=C(CC(C)(C)NC2=O)NC2N=NC(C(F)(F)F)=C21` (stereo not given in full) [US20250313563, Compound 950494], the IC50 is below 0.1 µM in test [1]; < 0.1 µM and 0.1 to 1 µM in test [2].

In the case of `CC[C@@]1(c2cccc(-c3cn(C)nc3C)c2)C2=C(CC(C)(C)NC2=O)NC2N=NC(C(F)F)=C21` (stereo not given in full) [US20250313563, Compound 950497], the 50% inhibitory concentration (IC50) in test [1] is below 0.1 µM; in test [2], < 0.1 µM and 0.1 to 1 µM.

As to `CC[C@@]1(c2cccc(-c3ccnc(C(F)F)c3)c2)C2=CN=NC2NC2=C1C(=O)NC(C)(C)C2` (stereo not given in full) [US20250313563, Compound 950561], the IC50 is below 0.1 µM in test [1] and 0.1 to 1 µM in test [2].

Consider `CC[C@@]1(c2cccc(-c3cnn(C)c3F)c2)C2=CN=NC2NC2=C1C(=O)NC(C)(C)C2` (stereo not given in full) [US20250313563, Compound 950562], for which the IC50 in test [1] is below 0.1 µM; in test [2], 0.1 to 1 µM.

For `CC[C@@]1(c2cccc(-c3cn(C)nc3C(F)(F)F)c2)C2=CN=NC2NC2=C1C(=O)NC(C)(C)C2` (stereo not given in full) [US20250313563, Compound 950563], the 50% inhibitory concentration (IC50) in test [1] and in test [2] was below 0.1 µM in each case.

Consider `CC[C@@]1(c2cccc(-c3cnn4c3CC(C)(C)CC4)c2)C2=CN=NC2NC2=C1C(=O)NC(C)(C)C2` (stereo not given in full) [US20250313563, Compound 950564], for which the figures for the IC50 in test [1] and in test [2] were below 0.1 µM and 0.1 to 1 µM, respectively.

As to `CC[C@@]1(c2cccc(-c3cnn4cc(F)cc(F)c34)c2)C2=CN=NC2NC2=C1C(=O)NC(C)(C)C2` (stereo not given in full) [US20250313563, Compound 950565], the IC50 was below 0.1 µM in test [1] and 0.1 to 1 µM in test [2].

Regarding `CCC1(c2cccc(C(F)(F)F)c2)C2=CN=NC2NC2=C1C(=O)N(c1cc(C)n(C)n1)CC2` (stereo not given) [US20250313563, Compound 950608], the IC50 in test [1] is 0.1 to 1 µM; in test [2], 1 to 5 µM.

For the compound `CCC1(c2cccc(C(F)(F)F)c2)C2=CN=NC2NC2=C1C(=O)N(c1cnn(C)c1C)CC2` (stereo not given) [US20250313563, Compound 950612], the results for the 50% inhibitory concentration (IC50) in test [1] and in test [2] were below 0.1 µM and 1 to 5 µM, respectively.

As for `CCC1(c2cccc(C(F)(F)F)c2)C2=CN=NC2NC2=C1C(=O)N(c1cccs1)CC2` (stereo not given) [US20250313563, Compound 950614], the concentration for half-maximal inhibition (IC50) in test [1] is below 0.1 µM; in test [2] it was 0.1 to 1 µM.

In the case of `CCC1(c2cccc(Oc3ncccn3)c2)C2=C(CC(C)(C)NC2=O)NC2N=NC(F)=C21` (stereo not given) [US20250313563, Compound 950615], the IC50 in test [1] is below 0.1 µM; in test [2] it was 0.1 to 1 µM.

As for `CCC1(c2cccc(C(F)(F)F)c2)C2=CN=NC2NC2=C1C(=O)N(c1ccsc1)CC2` (stereo not given) [US20250313563, Compound 950776], the IC50 was below 0.1 µM in test [1] and 0.1 to 1 µM in test [2].

As for `CCC1(c2cccc(C(F)(F)F)c2)C2=CN=NC2NC2=C1C(=O)N(c1cscn1)CC2` (stereo not given) [US20250313563, Compound 950777], the 50% inhibitory concentration (IC50) in test [1] is below 0.1 µM; in test [2], 0.1 to 1 µM.

`CCC1(c2cccc(-c3cn(C)nc3C)c2)C2=CN=NC2NC2=C1C(=O)NC1(CCS(=O)(=O)CC1)C2` (stereo not given) [US20250313563, Compound 950813]: the IC50 in test [1] is below 0.1 µM; in test [2], 0.1 to 1 µM.

Take `CC1(C)CC(=O)C2=C(NC3=C(CN=N3)C23CCN(S(=O)(=O)C2CC2)CC3)C1F` (stereo not given) [US20250313563, Compound 950814]: the half-maximal inhibitory concentration (IC50) in test [1] and in test [2] was below 0.1 µM each time.

On to `CCC1(c2cccc(-c3c(C)nnn3C)c2)C2=C(N=NC2)NC2=C1C(=O)C(C)(C)C2` (stereo not given) [US20250313563, Compound 950815], for which the 50% inhibitory concentration (IC50) in test [1] lay within 0.1 to 1 µM; in test [2] it was 1 to 5 µM.

As for `CC[C@@]1(c2cccc(C3CC3)c2)C2=CN=NC2NC2=C1C(=O)NC(C)(C)C2` (stereo not given in full) [US20250313563, Compound 950817], the half-maximal inhibitory concentration (IC50) in test [1] and in test [2] was above 5 µM each time.

`CC[C@@]1(c2cccc(-c3cc(C)nn3C)c2)C2=C(N=NC2)NC2=C1C(=O)C(C)(C)C2` [US20250313563, Compound 950818]: the IC50 was 0.1 to 1 µM in test [1] and 1 to 5 µM in test [2].

Regarding `CC[C@]1(c2cccc(-c3cnn(C)c3)c2)C2=C(N=NC2)NC2=C1C(=O)C(C)(C)C2` [US20250313563, Compound 950819], the 50% inhibitory concentration (IC50) was in the range of 0.1 to 1 µM in test [1] and 1 to 5 µM in test [2].

As to `CC[C@@]1(c2cccc(-c3cnn(-c4ccccc4)c3F)c2)C2=CN=NC2NC2=C1C(=O)NC(C)(C)C2` (stereo not given in full) [US20250313563, Compound 950821], the figures for the IC50 in test [1] and in test [2] were 0.1 to 1 µM and 1 to 5 µM, respectively.

`CC[C@@]1(c2cccc(-c3ccnn3-c3ccc(F)cc3)c2)C2=CN=NC2NC2=C1C(=O)NC(C)(C)C2` (stereo not given in full) [US20250313563, Compound 950822]: the concentration for half-maximal inhibition (IC50) in test [1] and in test [2] was 0.1 to 1 µM in each case.

(Values after BindingDB's records for patent US20250313563 (The Broad Institute, 2025).)
